# Data published in US10316028B2, “Orexin receptor antagonists” (Heptares Therapeutics Limited, priority 2012, dated 2019).
# Like-named read-outs stand apart in the source and are kept apart here.
# What was measured:
# rat CT18 sleep model = experiment: Rat telemetered sleep study (rat CT18 sleep model); assay type: in vivo; conditions: male CD rats
# Description: Rat Telemetered Sleep Study
# Example 100 was assessed for activity in a rat CT18 sleep model. Adult male CD rats (250-300 g) were implanted with telemetric probes fixed to the skull to record cortical electroencephalogram (EEG), and with telemetric probes fixed to the skeletal muscles of the neck to record electromyogram (neck EMG), and allowed to recover for 3 weeks to re-establish normal sleep patterns. Rats were administered with example 100 (3, 10 and 30 mg/kg, po) or vehicle (80% v/v PEG400, 20% v/v Cremophor EL, 2 ml/kg) at Circadian Time (CT) 18, six hours after lights off. EEG and neck EMG traces were recorded for 5 hours after treatment and analysed to determine time spent awake and in NREM sleep and REM sleep.
# human Orexin-2 receptor = target: T1, human Orexin-2 receptor (Homo sapiens, UniProt O43614); experiment: 3H-EMPA radioligand binding assay; conditions: 3H-EMPA displacement, membranes of HEK293 cells transfected with human Orexin-2 receptor; KI by Cheng-Prussoff; read-out: OX2 pKi ave (converted)
# T1 construct: expressed in transfected cells; host or cells: HEK293 cells (transient transfection, Genejuice); membranes
# T1 sequence (O43614 1-444): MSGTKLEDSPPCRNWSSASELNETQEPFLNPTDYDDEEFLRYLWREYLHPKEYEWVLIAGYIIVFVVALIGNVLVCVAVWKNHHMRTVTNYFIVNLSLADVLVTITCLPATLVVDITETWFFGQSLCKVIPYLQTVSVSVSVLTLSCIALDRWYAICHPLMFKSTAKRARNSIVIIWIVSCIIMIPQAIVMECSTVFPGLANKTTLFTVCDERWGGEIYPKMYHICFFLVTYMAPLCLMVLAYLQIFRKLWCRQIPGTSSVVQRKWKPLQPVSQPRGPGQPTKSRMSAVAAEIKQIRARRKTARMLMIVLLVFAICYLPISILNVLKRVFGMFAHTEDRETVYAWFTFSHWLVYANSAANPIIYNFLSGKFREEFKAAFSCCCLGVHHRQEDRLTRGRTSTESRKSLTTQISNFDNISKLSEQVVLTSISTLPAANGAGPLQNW
# Procedure, shortened: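 Membranes from HEK293 cells transiently transfected with human orexin-2 receptor cDNA, assayed with [3H]EMPA. Bound ligand collected on PEI-treated GF/B filters and counted by scintillation; IC50 from inhibition curves, Ki by Cheng-Prusoff.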
# [1] = target: T2, cortical orexin-2 receptors (Rattus norvegicus, UniProt P56719); experiment: Ex vivo orexin-2 receptor occupancy; assay type: in vivo; conditions: for ED50: po
# T2 construct: from tissue; host or cells: rat brain cortex sections (Sprague Dawley)
# T2 sequence (P56719 1-460): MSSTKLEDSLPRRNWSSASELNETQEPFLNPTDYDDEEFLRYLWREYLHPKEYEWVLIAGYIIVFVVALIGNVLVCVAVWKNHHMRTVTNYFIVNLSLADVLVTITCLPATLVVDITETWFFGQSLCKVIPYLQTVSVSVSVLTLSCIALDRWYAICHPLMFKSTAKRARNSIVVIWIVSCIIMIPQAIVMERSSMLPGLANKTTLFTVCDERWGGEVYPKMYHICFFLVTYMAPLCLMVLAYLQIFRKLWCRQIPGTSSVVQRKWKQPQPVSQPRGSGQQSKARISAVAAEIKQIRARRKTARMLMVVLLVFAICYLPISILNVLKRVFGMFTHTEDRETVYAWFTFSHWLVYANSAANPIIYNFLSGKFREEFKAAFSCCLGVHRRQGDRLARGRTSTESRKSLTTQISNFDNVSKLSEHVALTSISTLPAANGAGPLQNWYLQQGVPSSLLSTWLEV
# Description: Ex Vivo Orexin-2 Receptor Occupancy
# Male Sprague Dawley rats were dosed orally with either vehicle, example 145, (0.3-10 mg/kg po) or example 100, (1 mg/kg, po). Vehicle for example 145 was 90% PEG400/10% Tween-80; for example 100 10% DMAC+10% Solutol+80% (10% HPβCD in water). 1 h post-dose, animals were sacrificed and brains removed. A coronal block containing the cortex was rapidly frozen in isopentane for sectioning and autoradiography. 20 μm thick sections were mounted onto slides and incubated with [^3H]EMPA (total binding) or [^3H]EMPA and 1 μM TCS OX2 29 (non-specific binding) for 20 min at rt. Binding was terminated by aspiration and washing with ice-cold assay buffer and allowed to air dry. Levels of bound radioactivity in the sections were determined using a beta imager over a 16 h period. Occupancy was determined as mean specific binding with the vehicle treated control taken as 100%.
# preclinical sleep models = conditions: in vivo; cited from earlier work
# [2] = system: patients with primary insomnia; conditions: Phase II; cited from earlier work
# [3] = system: primary insomnia patients; conditions: Phase IIb study; cited from earlier work
# [4] = 3 mg/kg po at CT18, ANOVA over 3 hours post-treatment
structure (smiles),measurement,setting,value
"COc1cc(N2C(=O)N(Cc3c(F)cc(F)cc3F)c3ncccc3S2(=O)=O)cnc1OC [Example 100, 2-(5,6-Dimethoxypyridin-3-yl)-4-(2,4,6-trifluorobenzyl)-2H-pyrido[2,3-e][1,2,4]thiadiazin-3(4H)-one 1,1-dioxide]",NREM sleep,rat CT18 sleep model; [4],statistically significant increases
same,REM sleep,rat CT18 sleep model; [4],statistically significant increases
same,time spent awake,rat CT18 sleep model; [4],statistically significant decrease
same,Ki,human Orexin-2 receptor,2.45 nM
same,ED50,"[1]; rat, inferred from 57% occupancy at 1 mg/kg, read-out: ED50 value of orexin-2 receptor occupancy (suggested from single dose)",< 1 mg/kg
same,receptor occupancy at 1 mg/kg,"[1]; rat, male Sprague Dawley rats, 1 mg/kg po, 1 h post-dose",57%
"COc1cc(N2C(=O)N(Cc3c(F)cc(F)cc3F)c3ccccc3S2(=O)=O)cnc1OC [Example 145, 2-(5,6-Dimethoxypyridin-3-yl)-4-(2,4,6-trifluorobenzyl)-2H-1,2,4-benzothiadiazin-3(4H)-one 1,1-dioxide]",Ki,human Orexin-2 receptor,4.68 nM
same,"occupancy of cortical orexin-2 receptors, dose dependence","[1]; male Sprague Dawley rats, 0.3-10 mg/kg po, 1 h post-dose",dose dependent manner
same,ED50,"[1]; rat, male Sprague Dawley rats, 0.3-10 mg/kg, 1 h post-dose, estimated, read-out: ED50 of cortical orexin-2 receptor occupancy",5.8 mg/kg
Cc1ccc(-c2ncccn2)c(C(=O)N2C[C@H](COc3ccc(F)cn3)CC[C@H]2C)c1 [MK-6096],efficacy in preclinical sleep models,preclinical sleep models,shows efficacy
CNC(=O)[C@@H](c1ccccc1)N1CCc2cc(OC)c(OC)cc2[C@@H]1CCc1ccc(C(F)(F)F)cc1 [almorexant],sleep efficiency,[2],dose-dependently increased
Cc1ccc(-n2nccn2)c(C(=O)N2CCN(c3nc4cc(Cl)ccc4o3)CC[C@H]2C)c1 [suvorexant],sleep efficiency,[3],increased
"Cc1ccc(-c2nc3ccc(C)cn3c2CC(=O)N(C)C)cc1 [zolpidem, reference compound]",NREM latency,"rat CT18 sleep model; positive control, CT18",decrease
same,NREM sleep,"rat CT18 sleep model; positive control, CT18",increase
same,time spent awake,"rat CT18 sleep model; positive control, CT18",decrease
